Test results published in US20090286713A9, “Collagen Receptor I-Domain Binding Modulators” (Biotie Therapies Corporation, priority 2005, published 2009).
pEC50: −log10 of the molar value.

Tests used:
[1] = molecular target: T1, CHO cells expressing α2β1 integrin (Homo sapiens, UniProt P05556+P17301); experiment: Cell adhesion assay, CHO-α2 cells on collagen type I; assay type: cell-based, Chinese Hamster; settings: for Emax at 100 µM / inhibition at 50 µM: CHO; for pEC50: CHO-α2 cells, collagen type I, read-out: EC50, adhesion
T1 sequence (P17301 1-1181): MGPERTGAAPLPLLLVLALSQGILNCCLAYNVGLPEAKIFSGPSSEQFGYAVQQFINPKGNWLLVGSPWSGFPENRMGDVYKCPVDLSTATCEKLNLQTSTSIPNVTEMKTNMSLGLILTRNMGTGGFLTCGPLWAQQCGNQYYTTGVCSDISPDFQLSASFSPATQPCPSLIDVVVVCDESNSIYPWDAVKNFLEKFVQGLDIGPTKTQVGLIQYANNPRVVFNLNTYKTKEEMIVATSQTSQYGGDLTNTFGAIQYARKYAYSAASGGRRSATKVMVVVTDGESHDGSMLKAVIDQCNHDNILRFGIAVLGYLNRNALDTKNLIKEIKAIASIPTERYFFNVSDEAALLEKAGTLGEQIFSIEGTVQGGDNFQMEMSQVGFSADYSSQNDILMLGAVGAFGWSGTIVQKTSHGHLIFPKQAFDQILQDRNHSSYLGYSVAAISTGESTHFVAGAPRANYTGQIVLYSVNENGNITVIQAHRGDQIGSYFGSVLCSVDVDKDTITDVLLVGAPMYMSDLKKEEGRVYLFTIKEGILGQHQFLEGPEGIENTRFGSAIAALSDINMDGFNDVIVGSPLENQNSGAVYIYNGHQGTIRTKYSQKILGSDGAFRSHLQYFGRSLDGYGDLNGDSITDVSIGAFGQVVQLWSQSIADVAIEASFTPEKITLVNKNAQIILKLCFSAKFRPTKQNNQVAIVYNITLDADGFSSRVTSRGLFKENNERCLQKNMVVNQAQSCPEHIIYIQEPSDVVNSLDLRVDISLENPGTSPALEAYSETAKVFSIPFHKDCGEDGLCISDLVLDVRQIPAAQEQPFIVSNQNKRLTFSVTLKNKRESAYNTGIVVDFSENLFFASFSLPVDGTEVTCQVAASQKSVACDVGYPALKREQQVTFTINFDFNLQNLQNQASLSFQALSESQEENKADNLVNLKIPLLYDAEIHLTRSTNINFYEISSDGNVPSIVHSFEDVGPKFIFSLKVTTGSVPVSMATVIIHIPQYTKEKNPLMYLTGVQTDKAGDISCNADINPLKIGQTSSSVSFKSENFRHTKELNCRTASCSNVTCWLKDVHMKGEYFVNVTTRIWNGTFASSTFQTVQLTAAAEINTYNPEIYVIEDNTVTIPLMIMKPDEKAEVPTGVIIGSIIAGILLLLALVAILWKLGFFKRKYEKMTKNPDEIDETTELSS
Protocol: (§1) Chinese Hamster Ovary (CHO) cell clone expressing wild type α2 integrin was used in cell adhesion assay. Cells were suspended in serum free medium containing 0.1 mg/ml cycloheximide (Sigma) and the compounds were preincubated with the cells prior to transfer to the wells. Cells (150000/well) were allowed to attach on collagen type I coated wells (in the presence and absence of inhibitor compounds) for 2 h at +37° C. and after that non-adherent cells were removed. Fresh serum free medium was added and the living cells were detected using a cell viability kit (Roche) according to the manufacturers protocol.
(§2) For this purpose CHO cells were transfected to express α2β1 integrin on their surface as their only collagen receptor.

α2 I-domain [2] = molecular target: T2, α2 I-domain (Homo sapiens, UniProt P17301); experiment: Solid-phase binding assay, α2 I-domain binding to type I collagen; settings: for inhibition of α2 I-domain binding to type I collagen (in words): FIG. 6B, 7A, 8A
T2 construct: corresponded to amino acids 124-339 of the whole α2 integrin; made in house; host or cells: E. coli BL21 (pGEX-2T)
T2 sequence (P17301 153-368): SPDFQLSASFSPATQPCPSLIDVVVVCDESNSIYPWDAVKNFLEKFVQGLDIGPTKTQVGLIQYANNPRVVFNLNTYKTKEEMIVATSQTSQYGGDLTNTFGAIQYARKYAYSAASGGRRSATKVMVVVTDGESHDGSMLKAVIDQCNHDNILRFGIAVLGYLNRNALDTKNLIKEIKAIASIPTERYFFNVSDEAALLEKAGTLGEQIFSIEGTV
Protocol: (§3) Solid-phase binding assay for α1-domains—The coating of a 96-well high binding microtiter plate (Nune) was done by exposure to 0.1 ml of PBS containing 5 μg/cm2 (15 μg/ml) collagens or 20 μg/ml triple-helical peptides overnight at +4° C. Blank wells were coated with 1:1 solution of 0.1 ml Delfia® Diluent II (Wallac) and PBS. Residual protein absorption sites on all wells were blocked with 1:1 solution of 0.1 ml Delfia® Diluent II (Wallac) and PBS. Recombinant proteins (αI-GST) were added to the coated wells at a desired concentration in Delfia® Assay Buffer and incubated for 1 h at room temperature. Europium-labelled anti-GST antibody (Wallac) was then added (typically 1:1000), and the mixture was incubated for 1 h at room temperature. All incubations mentioned above were done in the presence of 2 mM MgCl2. Delfia® enhancement solution (Wallac) was added to each well and the Europium signal was measured by time-resolved fluorometry (Victor2 multilabel counter, Wallac). At least three parallel wells were analyzed. In some cases some what modified solid-phase assay was used and it was performed according Tulla et al, 2001. It uses anti-GST and Europium-labelled protein G instead of Europium-labelled anti-GST antibody.
(§4) The tetracyclic Streptomyces compounds synthesised in Example 1, where screened for inhibition of collagen binding to α1 and α2 I-domains, using the α I-domain assay described in Example 4. […] L3015 could inhibit the binding of both α1I and α2 I-domains to type I and type IV collagen (FIG. 6B).
Based on the utilization of 3D model other compounds from the polyketide family were tested. The compounds were tested in the europium-labelled anti-GST assay described in Example 4. Tetracyclic polyketides L3007, L3008, and L3009 could inhibit α2 I-domain binding to type I collagen (FIG. 8A).

[3] = test system: CHO expressing mutated α2β1 integrin (tyrosine 285, leucine 286, leucine 296); experiment: Cell adhesion assay with CHO cells expressing mutated α2β1 integrin; assay type: cell-based, Chinese Hamster; settings: data not shown
PC-3 cells = experiment: Cell invasion assay, PC-3 cells through Matrigel; assay type: cell-based; settings: Homo sapiens, 72 hours
Protocol: Experimental procedure. […] Inserts were stored at −20° C. […] The remaining media was aspirated. […] Inserts were allowed to dry. Fixed invaded cells were calculated under the microscope. Invasion % was calculated as a comparison to the control.

α1 I-domain [4] = molecular target: T3, α1 I-domain (Homo sapiens, UniProt P56199); experiment: Solid-phase binding assay, α1 I-domain binding to type I collagen; settings: FIG. 6B, 7A
T3 construct: corresponding to amino acids 123-338 of the whole α1 integrin; made in house; host or cells: E. coli BL21 (pGEX-4T-3)
T3 sequence (P56199 151-366): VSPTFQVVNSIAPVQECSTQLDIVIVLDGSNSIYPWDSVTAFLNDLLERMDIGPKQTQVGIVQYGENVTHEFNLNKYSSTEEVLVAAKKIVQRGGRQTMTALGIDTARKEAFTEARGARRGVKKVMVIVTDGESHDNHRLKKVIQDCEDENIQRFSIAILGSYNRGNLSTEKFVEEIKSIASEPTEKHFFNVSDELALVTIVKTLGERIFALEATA
Protocol: as §3, §4
Furthermore α1I and α2 I-domain binding to collagen I in the presence of lovastatin was tested in the europium-labelled anti-GST assay described in Example 4. Lovastatin is an allosteric inhibitor of leukocyte integrin α I-domains (e.g. αL I-domain), and the binding site of lovastatin represents an optional binding site for possible modulators. […] These biological tests gave further evidence that collagen receptor α I-domains are inhibited by direct blocking of the MIDAS surface by tetracyclic polyketide.

[5] = molecular target: T4, CHO cells expressing α2β1 integrin (Homo sapiens, UniProt P17301); experiment: Cell adhesion assay, CHO-α2 cells on collagen type I; assay type: cell-based, Chinese Hamster; settings: FIG. 10A, 10B
T4 sequence (P17301 1-1181): T1 sequence (P17301 1-1181)
Protocol: as §1, §2

[6] = test system: platelet aggregation in whole blood; experiment: Platelet function analyzer PFA-100 closure time of whole blood; assay type: cell-based; settings: PFA-100, collagen plus epinephrine; FIG. 12
Protocol: Mean and standard deviations were calculated for each treatment.

α2 I-domain [7] = molecular target: T2, α2 I-domain; experiment: Solid-phase binding assay, α2 I-domain binding to type IV collagen; settings: FIG. 6B
Protocol: as §3, with “antibody. […]” for “antibody.”

α1 I-domain [8] = molecular target: T3, α1 I-domain; experiment: Solid-phase binding assay, α1 I-domain binding to type IV collagen; settings: FIG. 6B
Protocol: as §3, with “antibody. […]” for “antibody.”

α2 I-domain [9] = molecular target: T2, α2 I-domain; experiment: α2 I-domain binding to RKK-peptide (europium-labelled protein G assay); settings: FIG. 7B
Protocol: as §3
RKK-peptides are known to bind to MIDAS of α2 I-domain (Ivaska et al., 1999). […]

Row | Emax at 100 µM [1] [%] | pEC50 [1] | Compound | other results
1 | 86 | 4.43 | O=S(=O)(Nc1cccc(-c2ccc(F)cc2)c1)c1ccc(Cl)cc1Cl [Compound 403] | –
2 | – | – | CCc1cc(O)c2c(O)c3c(c(O)c2c1C(=O)OC)C(=O)c1cccc(O)c1C3=O [Compound L3008, methyl 2-ethyl-4,5,7,12-tetrahydroxy-6,11-dioxonaphthacenecarboxylate] | inhibition of α2 I-domain binding to type I collagen (in words) (α2 I-domain [2]): could inhibit; effect of mutation of tyrosine 285, leucine 286, leucine 296 on the inhibitory effect in adhesion of CHO cells expressing α2β1 to collagen I [3]: significantly decreased
3 | – | 5.03 | O=S(=O)(Nc1ccc(C(O)c2ccccc2)cc1)c1cccc(-c2ccc(F)cc2)c1 (centres unmarked) [Compound 452] | inhibition at 50 µM [1]: 83%; pEC50 (PC-3 cells): 6.10
4 | 22 | – | Cn1cccc1C(=O)Nc1ccc(NS(=O)(=O)c2cccc(-c3ccc(F)cc3)c2)cc1 [Compound 442] | –
5 | – | 4.41 | CC(=O)c1ccc(NS(=O)(=O)c2cccc(-c3ccc(F)cc3)c2)cc1 [Compound 383] | –
6 | 79 | 4.82 | O=C(c1ccccc1)c1cccc(NS(=O)(=O)c2cccc(-c3ccc(F)cc3)c2)c1 [Compound 432] | –
7 | – | – | CC[C@H](C)C(=O)O[C@H]1C[C@@H](C)C=C2C=C[C@H](C)[C@H](CC[C@@H]3C[C@@H](O)CC(=O)O3)[C@H]21 [lovastatin, reference compound] | inhibition of α2 I-domain binding to type I collagen (in words) (α2 I-domain [2]): no effect; inhibition of α1 I-domain binding to type I collagen (in words) (α1 I-domain [4]): no effect
8 | 89 | 4.54 | CN(C)CCN(c1ccc(N(C)C)cc1)S(=O)(=O)c1cccc(-c2ccc(F)cc2)c1 [Compound 354] | –
9 | 78 | 5.06 | O=[N+]([O-])c1ccc(NS(=O)(=O)c2cccc(-c3ccc(F)cc3)c2)cc1 [Compound 440] | –
10 | – | 4.80 | O=S(=O)(Nc1cccc(-c2ccc(F)cc2)c1)c1ccc(Cl)cc1 [Compound 398] | inhibition at 50 µM [1]: 83%
11 | 74 | 4.42 | N#Cc1ccc(NS(=O)(=O)c2cccc(-c3ccc(F)cc3)c2)cc1 [Compound 448] | –
12 | 74 | 4.52 | CN(C)c1ccc(N(CCn2ccnc2)S(=O)(=O)c2cccc(-c3ccc(F)cc3)c2)cc1 [Compound 358] | –
13 | – | – | methyl 2-ethyl-2,5,7,12-tetrahydroxy-4,6,11-trioxo-1,2,3-trihydronaphthacene-carboxylate [Compound L3007] | inhibition of α2 I-domain binding to type I collagen (in words) (α2 I-domain [2]): could inhibit
14 | 67 | 4.41 | CN(C)c1ccc(N(CCO)S(=O)(=O)c2cccc(-c3ccc(F)cc3)c2)cc1 [Compound 359] | –
15 | 59 | 4.85 | CN(c1ccc(NC(=O)N2CCNC2=O)cc1)S(=O)(=O)c1cccc(-c2ccc(F)cc2)c1 [Compound 430] | –
16 | 79 | 4.38 | O=C(c1ccccc1)c1ccc(NS(=O)(=O)c2ccc(Cl)cc2Cl)cc1 [Compound 416] | inhibition at 50 µM [1]: 44%
17 | – | – | CCc1cc(O)c2c(O)c3c(cc2c1C(=O)OC)C(=O)c1cccc(O)c1C3=O [Compound L3015, methyl 2-ethyl-4,5,7-trihydroxy-6,11 dioxonaphthacenecarboxylate] | inhibition of α2 I-domain binding to type I collagen (in words) (α2 I-domain [2]): could inhibit; inhibition at 30 µM (α2 I-domain [2]; at 0.03 mM concentration, dose dependent, FIG. 6A): ~50%; inhibition of α1 I-domain binding to type I collagen (in words) (α1 I-domain [4]): could inhibit; inhibition of α2 I-domain binding to type IV collagen (in words) (α2 I-domain [7]): could inhibit; inhibition of α1 I-domain binding to type IV collagen (in words) (α1 I-domain [8]): could inhibit; displacement of RKK peptide at MIDAS (α2 I-domain [9]): can displace

Row | Compound | Emax at 100 µM [1] [%] | pEC50 [1] | other results
18 | O=C(c1ccccc1)c1ccc([N-]S(=O)(=O)c2cccc(-c3ccc(F)cc3)c2)cc1.[Na+] [Compound 434] | – | 5.04 | Emax at 100 µM ([1]; at 100 uM): 78%; inhibition of cell adhesion to collagen type I (in words) [5]: potent inhibitor; effect of mutation of tyrosine 285, leucine 286, leucine 296 on the inhibitory effect in adhesion of CHO cells expressing α2β1 to collagen I [3]: significantly decreased; closure time of the blood [6]: increase the closure time
19 | O=C(c1ccccc1)c1ccc(NS(=O)(=O)c2cccc(-c3ccc(F)cc3)c2)cc1 [Compound 384] | 81 | 4.92 | –
